Assay results taken from US5932587A, “Heterocyclic-fused pyridines” (Bayer Aktiengesellschaft, priority 1996, dated 1999).

Tests used:
CETP = test: Ex vivo activity: CETP activity in serum of treated Syrian golden hamsters; conditions: ex vivo CETP activity in hamster serum; for ED50 (ex vivo activity): up to 24 hours after administration
Procedure: Ex vivo activity of the compounds according to the invention
Syrian golden hamsters from in-house breeding are anaesthetized after fasting for 24 hours (0.8 mg/kg of atropine, 0.8 mg/kg of Ketavet® s.c., 30' later 50 mg/kg of Nembutal i.p.). The jugular vein is then exposed and cannulated. The test substance is dissolved in a suitable solvent (as a rule Adalat placebo solution: 60 g of glycerol, 100 ml of H2 O, PEG-400 to 1000 ml) and administered to the animals via a PE catheter inserted in the jugular vein. The control animals receive the same volume of solvent without test substance. The vein is then tied off and the wound is closed.
The administration of the test substances can also be carried out p.o., by orally administering the substances dissolved in DMSO and suspended in 0.5% Tylose by means of a stomach tube. The control animals receive identical volumes of solvent without test substance.
After various times--up to 24 hours after administration--blood (about 250 μl) is taken from the animals by puncture of the retro-orbital venous plexus. Clotting is ended by incubation at 4° C. overnight, then centrifugation is carried out at 6000×g for 10 minutes. In the serum thus obtained, CETP activity is determined by the modified CETP test. As for the CETP test described above, the transfer of ^3 H-cholesterol ester from HD lipoproteins to biotinylated LD lipoproteins is measured.
The reaction is ended by addition of Streptavidin-SPA®beads (Amersham) and the transferred radioactivity is determined directly in the liquid scintillation counter.
The test mixture is carried out as described under "CETP test". For the testing of the serum, only 10 μl of CETP are replaced by 10 μl of the corresponding serum samples. As controls, corresponding incubations with sera of untreated animals are used.
The activity transferred in the control mixtures with control sera is rated as 100% transfer. The substance concentration at which this transfer is reduced to a half is indicated as the ED50 value.

[1] = target: T1, cholesterol ester transfer protein (CETP) (Homo sapiens, UniProt P11597); test: CETP inhibition test (transfer of 3H-cholesterol ester from human HDL to biotinylated LDL, SPA); assay type: biochemical; conditions: 37° C., 18 h
T1 construct: CETP is obtained from human plasma in partially purified form; from tissue; host or cells: human plasma (partially purified in house by differential centrifugation and column chromatography)
T1 sequence (P11597 18-493): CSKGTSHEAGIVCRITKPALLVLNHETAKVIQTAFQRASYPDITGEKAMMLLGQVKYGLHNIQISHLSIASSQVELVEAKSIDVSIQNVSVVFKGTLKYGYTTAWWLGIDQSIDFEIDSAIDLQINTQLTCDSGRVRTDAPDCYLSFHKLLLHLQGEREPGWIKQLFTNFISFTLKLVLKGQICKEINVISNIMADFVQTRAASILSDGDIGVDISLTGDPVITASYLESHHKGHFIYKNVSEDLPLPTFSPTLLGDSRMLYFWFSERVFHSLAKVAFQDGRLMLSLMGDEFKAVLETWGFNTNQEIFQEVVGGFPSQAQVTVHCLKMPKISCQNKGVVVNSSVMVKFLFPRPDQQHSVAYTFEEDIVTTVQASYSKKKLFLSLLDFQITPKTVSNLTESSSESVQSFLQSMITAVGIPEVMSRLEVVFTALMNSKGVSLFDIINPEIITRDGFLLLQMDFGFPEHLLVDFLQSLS
Procedure: CETP is obtained from human plasma in partially purified form by differential centrifugation and column chromatography and used for the test. To this end, human plasma is adjusted to a density of 1.21 g per ml using NaBr and centrifuged at 4° C. for 18 h at 50,000 rpm. The bottom fraction (d>1.21 g/ml) is applied to a Sephadex®phenyl-sepharose 4B (Pharmacia) column, washed with 0.15 M NaCl/0.001 M tris HCl pH 7.4 and then eluted with distilled water. The CETP-active fractions are pooled, dialysed against 50 mM Na acetate pH 4.5 and applied to a CM-Sepharose® (Pharmacia) column. The column is then eluted using a linear gradient (0-1 M NaCl). The pooled CETP fractions are dialysed against 10 mM tris HCl pH 7.4 and then further purified by chromatography on a Mono Q® column (Pharmacia).
Obtainment of radiolabelled HDL
50 ml of fresh human EDTA plasma are adjusted to a density of 1.12 using NaBr and centrifuged at 50,000 rpm for 18 h at 4° C. in a Ty 65 rotor. The upper phase is used to obtain cold LDL. The lower phase is dialysed against 3×4 l of PDB buffer (10 mM tris/HCl pH 7.4, […], 1 mM EDTA, 0.02% NaN3). 20 μl of ^3 H-cholesterol (Dupont NET-725; 1 μC/μl dissolved in ethanol) are then added per 10 ml of retentate volume and the mixture is incubated under N2 at 37° C. for 72 h. […]
To test the CETP activity, the transfer of ^3 H-cholesterol ester from human HD lipoproteins to biotinylated LD lipoproteins is measured. The reaction is ended by addition of streptavidin-SPA®beads (Amersham) and the transferred radioactivity is determined directly in a liquid scintillation counter.
In the test mixture, 10 μl of HDL-^3 H-cholesterol ester (~50,000 cpm) are incubated at 37° C. for 18 h with 10 μl of biotin-LDL (Amersham) in 50 mM Hepes/0.15 M NaCl/0.1% bovine serum albumin/0.05% NaN3 pH 7.4 with 10 μl of CETP (1 mg/ml) and 3 μl of solution of the substance to be tested (dissolved in 10% DMSO/1% RSA). 200 μl of the SPA-streptavidin bead solution (TRKQ 7005) are then added, the mixture is incubated further for 1 h with shaking and then measured in the scintillation counter. […]

[2] = In vivo activity: oral action on lipoproteins and triglycerides in Syrian golden hamsters (HDL rise); conditions: dose 2 × 3 mg/kg, hamster, up to 24 hours after administration
Procedure: In vivo activity of the compounds according to the invention
In experiments to determine the oral action on lipoproteins and triglycerides, test substance dissolved in DMSO and 0.5% Tylose suspended by means of a stomach tube are administered orally to Syrian golden hamsters from in-house breeding. To determine the CETP activity, blood (about 250 μl) is taken by retro-orbital puncture before the start of the experiment. The test substances are then administered orally by means of a stomach tube. The control animals receive identical volumes of solvent without test substance. […]
Clotting is ended by incubation at 4° C. overnight, then centrifugation at 6000×g is carried out for 10 minutes. In the serum thus obtained, the content of cholesterol and triglycerides is determined with the aid of modified commercially available enzyme tests (cholesterol enzymatic 14366 Merck, triglycerides 14364 Merck). […]
100 μl of serum dilution are mixed with 100 μl of test substance in 96-hole plates and incubated at room temperature for 10 minutes. The optical density is then determined at a wavelength of 492 nm using an automatic plate-reading apparatus. The triglyceride or cholesterol concentration contained in the samples is determined with the aid of a standard curve measured in parallel. […]

[3] = In vivo activity in transgenic hCETP mice (change in HDL, LDL, triglycerides); conditions: 80 ppm in the feed, one week
Procedure: In vivo activity in transgenic hCETP mice
Transgenic mice from in-house breeding (Dinchuck, Hart, Gonzalez Karmann Schmidt, Wirak; BBA (1995), 1295, 301) were administered the substances to be tested in the feed. Before the start of the experiment, blood was taken retro-orbitally from the mice in order to determine cholesterol and triglycerides in the serum. The serum was obtained as described above for hamsters by incubation at 4° C. overnight and subsequent centrifugation at 6000×g. After one week, blood was again taken from the mice in order to determine lipoproteins and triglycerides. The change in the parameters measured is expressed as a percentage change compared with the starting value.

Row | Compound | IC50 [1] [nM] | ED50 (ex vivo activity) (CETP) [mg/kg] | % Inhibition at 10 mg/kg (CETP) [%] | % HDL rise [2] [%] | HDL (percentage change compared with the starting value) [3] | LDL (percentage change compared with the starting value) [3] | Triglycerides (percentage change compared with the starting value) [3] [%]
1 | CC1CC(O)c2c(nc(C3CCCC3)c(C(O)c3ccc(C(F)(F)F)cc3)c2-c2ccc(F)cc2)N1Cc1ccccc1 (single isomer, unassigned) [Example 21] |  | > 10 | 34.4 |  |  |  | 
2 | OC1CCN(Cc2ccccc2)c2nc(C3CCCC3)c(Cc3ccc(C(F)(F)F)cc3)c(-c3ccc(F)cc3)c21 (centres unmarked) [Example 16] | 850 |  |  |  |  |  | 
3 | CC1CC(O)c2c(nc(C3CCCC3)c(Cc3ccc(C(F)(F)F)cc3)c2-c2ccc(F)cc2)N1Cc1ccccc1 (centres unmarked) [Example 20] |  | > 10 | 50.4 | 9.21 | +14.5% | +6.7% | -24.5

Second part, led by results:

Row | IC50 [1] [nM] | Compound | ED50 (ex vivo activity) (CETP) [mg/kg] | % Inhibition at 10 mg/kg (CETP) [%] | % HDL rise [2] [%] | HDL (percentage change compared with the starting value) [3] | LDL (percentage change compared with the starting value) [3] | Triglycerides (percentage change compared with the starting value) [3] [%]
4 | 200 | OC1CSCc2nc(C3CCCC3)c(C(F)c3ccc(C(F)(F)F)cc3)c(-c3ccc(F)cc3)c21 (centres unmarked) [Example 12] | < 10 | 49.5 | 12.37 |  |  | 
5 | 6000 | O=S1(=O)Cc2nc(C3CCCC3)c(C(O)c3ccc(C(F)(F)F)cc3)c(-c3ccc(F)cc3)c2C(O)C1 (centres unmarked) [Example 14] |  |  |  |  |  | 
